Among the test systems are RXF 393 renal; HS 578T breast; SK-MEL-28 melanoma; SK-MEL-5 melanoma; HCT-116 colon; SK-MEL-2 melanoma; HCC-2998 colon; PC-3 prostate.
What all share (assay): NCI anticancer screen, dose series, 48 h

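96-well plates; 48 h exposure; 5 concentrations. Endpoints by linear interpolation between flanking doses. Not reached: highest tested concentration assigned. GI50: concentration for 50% inhibition of growth. Definition used: TGI = concentration required for complete inhibition of growth.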

Turning to `C=C(CNCc1ccccc1)c1ccc(C(=O)Nc2ccccc2N)cc1`, the GI50 with RXF 393 renal is 1.87 µM; with HS 578T breast, 15.2 µM; in the assay with SK-MEL-28 melanoma, 11.7 µM; in the assay on SK-MEL-5 melanoma, 4.66 µM; with HCT-116 colon it was 15 µM; with SK-MEL-2 melanoma, 5.49 µM. Moreover, the GI50 is 2.22 µM with HCC-2998 colon and 18.5 µM with PC-3 prostate. In addition, the TGI is 24.1 µM in the assay on RXF 393 renal; above 100 µM in the assay with HS 578T breast; above 100 µM with SK-MEL-28 melanoma; 17.4 µM in the assay with SK-MEL-5 melanoma; above 100 µM with HCT-116 colon; above 100 µM in the assay with SK-MEL-2 melanoma. For the same compound, the TGI in the assay on HCC-2998 colon is 5.4 µM; in the assay on PC-3 prostate it was above 100 µM.

For `[Cl][Hg][c]1cc(Br)cc(Br)c1`, the GI50 in the assay on RXF 393 renal is 1.45 µM; in the assay on HS 578T breast, 1.58 µM; with SK-MEL-28 melanoma it was 1.57 µM; with SK-MEL-5 melanoma it was 1.54 µM; in the assay with HCT-116 colon it was 3.41 µM; with SK-MEL-2 melanoma it was 1.97 µM. For the same compound, the results for the GI50 with HCC-2998 colon and in the assay with PC-3 prostate were 2.08 µM and 2.16 µM, respectively. Besides, the TGI in the assay with RXF 393 renal came to 2.85 µM; in the assay with HS 578T breast it was 7.07 µM; with SK-MEL-28 melanoma it was 2.97 µM; in the assay on SK-MEL-5 melanoma, 3.04 µM; in the assay on HCT-116 colon it was 13.4 µM; in the assay on SK-MEL-2 melanoma, 5.66 µM. Besides, the TGI in the assay on HCC-2998 colon was 4.29 µM; with PC-3 prostate it was 7.2 µM.

For the compound `CCC(C)n1ncn(-c2ccc(N3CCN(c4ccc(OCC5COC(Cn6cncn6)(c6ccc(Cl)cc6Cl)O5)cc4)CC3)cc2)c1=O` (centres undefined), the GI50 is 0.267 µM in the assay with RXF 393 renal; 7.42 µM with HS 578T breast; above 100 µM in the assay on SK-MEL-28 melanoma; 2.75 µM in the assay on SK-MEL-5 melanoma; 21.6 µM in the assay with HCT-116 colon; 13.8 µM in the assay on SK-MEL-2 melanoma. Besides, the GI50 with HCC-2998 colon is 84.1 µM; in the assay on PC-3 prostate, 3.96 µM. Also, the TGI in the assay on RXF 393 renal was 0.865 µM; with HS 578T breast, above 100 µM; in the assay with SK-MEL-28 melanoma it was above 100 µM; in the assay with SK-MEL-5 melanoma, above 100 µM; with HCT-116 colon it was above 100 µM; with SK-MEL-2 melanoma it was 68.9 µM. Moreover, the TGI in the assay with HCC-2998 colon and in the assay on PC-3 prostate was above 100 µM each time.

For the compound `O=C(Nc1nc2ccc(C(F)(F)F)cc2s1)c1cc(Cl)ccc1O`, the GI50 in the assay on RXF 393 renal was 1.76 µM; with HS 578T breast it was 1.23 µM; in the assay with SK-MEL-28 melanoma, 0.425 µM; with SK-MEL-5 melanoma it was 0.234 µM; in the assay with HCT-116 colon it was 0.414 µM; with SK-MEL-2 melanoma, 0.798 µM. The figures for the GI50 in the assay with HCC-2998 colon and in the assay on PC-3 prostate were 0.781 µM and 0.318 µM, respectively. The TGI in the assay with RXF 393 renal was 11.1 µM; with HS 578T breast it was above 100 µM; in the assay on SK-MEL-28 melanoma it was 18 µM; in the assay with SK-MEL-5 melanoma, 0.684 µM; in the assay on HCT-116 colon, 11 µM; in the assay with SK-MEL-2 melanoma, 6.09 µM. Moreover, the TGI is 73.6 µM with HCC-2998 colon and 11.9 µM in the assay on PC-3 prostate.

Regarding `COc1cc(C2CC(c3cccc(Br)c3)=NN2C(C)=O)cc(OC)c1OC` (centres undefined), the GI50 in the assay with RXF 393 renal was 0.266 µM; in the assay on HS 578T breast, 0.397 µM; in the assay with SK-MEL-28 melanoma, 3.8 µM; in the assay on SK-MEL-5 melanoma it was 0.289 µM; with HCT-116 colon, 0.479 µM; with SK-MEL-2 melanoma, 3.51 µM. For the same compound, the GI50 in the assay with HCC-2998 colon is 1.11 µM; in the assay with PC-3 prostate it was 0.162 µM. In addition, the TGI is 0.976 µM in the assay with RXF 393 renal; above 100 µM with HS 578T breast; above 77.9 µM with SK-MEL-28 melanoma; 14.9 µM in the assay with SK-MEL-5 melanoma; above 55.9 µM with HCT-116 colon; 55.5 µM with SK-MEL-2 melanoma. Moreover, the values for the TGI in the assay on HCC-2998 colon and in the assay with PC-3 prostate were 15.7 µM and 36.2 µM, respectively.

For the compound `COc1ccc(C(C)=O)cc1N1C(=O)C2C(C1=O)C1(c3ccccc3)C(=O)C2(c2ccccc2)C(c2ccc(C)cc2)=C1c1ccc(C)cc1` (centres undefined), the GI50 in the assay with RXF 393 renal, with HS 578T breast, with SK-MEL-28 melanoma, in the assay on SK-MEL-5 melanoma, with HCT-116 colon and with SK-MEL-2 melanoma was above 100 µM throughout. Besides, the GI50 with HCC-2998 colon and in the assay on PC-3 prostate was above 100 µM throughout. In addition, the TGI with RXF 393 renal, in the assay on HS 578T breast, in the assay on SK-MEL-28 melanoma, in the assay on SK-MEL-5 melanoma, in the assay on HCT-116 colon and in the assay on SK-MEL-2 melanoma was above 100 µM throughout. The TGI in the assay on HCC-2998 colon and with PC-3 prostate was above 100 µM each time.

In the case of `Clc1nc2ccccc2nc1CI`, the GI50 was 3.08 µM in the assay on RXF 393 renal; 12.7 µM in the assay with HS 578T breast; 9.31 µM with SK-MEL-28 melanoma; 2.6 µM with SK-MEL-5 melanoma; 1.95 µM with HCT-116 colon; 5.43 µM in the assay on SK-MEL-2 melanoma. The GI50 in the assay with HCC-2998 colon was 19.1 µM; with PC-3 prostate it was 8.81 µM. Also, the TGI with RXF 393 renal was 11.7 µM; in the assay with HS 578T breast, 77.6 µM; in the assay on SK-MEL-28 melanoma, 23 µM; in the assay with SK-MEL-5 melanoma, 7.82 µM; in the assay on HCT-116 colon, 3.95 µM; in the assay on SK-MEL-2 melanoma it was 19.4 µM. The TGI in the assay with HCC-2998 colon was 35.9 µM; in the assay on PC-3 prostate, 22.5 µM.

In the case of `N#CC(=C1C=CC(=NO)C=C1)c1ccccc1`, the GI50 in the assay with RXF 393 renal was 1.14 µM; in the assay on HS 578T breast it was 2.39 µM; with SK-MEL-28 melanoma, 8.71 µM; with SK-MEL-5 melanoma it was 2.01 µM; with HCT-116 colon, 0.272 µM; in the assay on SK-MEL-2 melanoma it was 2.14 µM. The GI50 was 4.61 µM in the assay on HCC-2998 colon and 0.671 µM in the assay on PC-3 prostate. Besides, the TGI in the assay with RXF 393 renal was 8.63 µM; in the assay on HS 578T breast, 6.68 µM; in the assay with SK-MEL-28 melanoma, 27.5 µM; with SK-MEL-5 melanoma, 8.3 µM; with HCT-116 colon, 0.794 µM; in the assay with SK-MEL-2 melanoma, 6.77 µM. For the same compound, the results for the TGI in the assay on HCC-2998 colon and with PC-3 prostate were 15 µM and 17 µM, respectively.

Consider `COc1ccc(CN2C(=O)/C(=C\C(=O)c3ccc(OCCN4CCCCC4)cc3)c3ccccc32)cc1`, for which the GI50 in the assay on RXF 393 renal is 1.69 µM; with HS 578T breast, 3.79 µM; with SK-MEL-28 melanoma, 1.98 µM; in the assay on SK-MEL-5 melanoma, 11 µM; with HCT-116 colon, 1.54 µM; in the assay on SK-MEL-2 melanoma, 13.8 µM. Also, the GI50 with HCC-2998 colon is 2.4 µM; in the assay with PC-3 prostate it was 2.7 µM. In addition, the TGI with RXF 393 renal came to 3.22 µM; with HS 578T breast, 25.5 µM; in the assay on SK-MEL-28 melanoma, 4.02 µM; in the assay on SK-MEL-5 melanoma, 23.5 µM; with HCT-116 colon it was 2.88 µM; with SK-MEL-2 melanoma, 27.9 µM. For the same compound, the TGI came to 5.05 µM in the assay on HCC-2998 colon and 5.55 µM with PC-3 prostate.

These data come from PubChem BioAssay (NCI).
